In US7078550B2, “Silanyl phenols and naphthols” (Ciba Specialty Chemicals Corporation, priority 2001, dated 2006):
In brackets after ≈: the same amount, converted by molar mass.

Key:
Experiment in all cases: Minimum Inhibitory Concentration (MIC) in the agar incorporation test
Type in all cases: cell-based
[1] = tested on: Aspergillus niger ATCC 6275; conditions: ATCC6275, 72 h, Sabouraud 4% glucose agar, 3 days at 28° C.
Method: (§1) Determination of the Minimum Inhibitory Concentration (MIC) in the Agar Incorporation Test (MIC Test)
(§2) 0.3 ml of each dilution stage is mixed with 15 ml of still-liquid nutrient medium. After the nutrient medium has solidified, 10 μl of each of the following organism dilutions of the test strains in 0.85% NaCl solution are spotted onto the agar medium:
(§3) The plates are incubated for 24 hours at 37° C. (A. niger 3 days at 28° C.) and then the highest dilution (lowest concentration) of the test substance at which growth is just no longer discernible (corresponds to the MIC) is determined.

[2] = tested on: Staphylococcus aureus ATCC 9144; conditions: ATCC9144, 24 hours at 37° C.
Method: as §1, §2, §3

[3] = tested on: Candida albicans ATCC 10231
Method: as §1, §2, §3

[4] = tested on: Escherichia coli NCTC 8196; conditions: NCTC8196, 24 hours at 37° C.
Method: as §1, §2, §3

[5] = tested on: Pseudomonas aeruginosa CIP A-22; conditions: CIPA22, 24 hours at 37° C.
Method: as §1, §2, §3

[6] = tested on: Corynebacterium xerosis ATCC 373; conditions: ATCC373, 24 h
Method: (§4) Determination of the Minimum Inhibitory Concentration (MIC) in the Agar Incorporation Test (MIC Test) [table] Test Principle: 0.3 ml of each dilution stage is mixed with 15 ml of still-liquid nutrient medium. After the nutrient medium has solidified, 10 μl of each of the following organism dilutions of the test strains in 0.85% NaCl solution are spotted onto the agar medium: The plates are incubated for 24 hours at 37° C. (A. niger 3 days at 28° C.) and then the highest dilution (lowest concentration) of the test substance at which growth is just no longer discernible (corresponds to the MIC) is determined.

[7] = tested on: Staphylococcus hominis DSM 20328; conditions: DSM20328
Method: as §4

[8] = tested on: Escherichia coli ATCC 10536; conditions: ATCC10536
Method: as §4

[9] = tested on: Enterococcus hirae ATCC 10541; conditions: ATCC10541
Method: as §4

[10] = ATCC10231, Candida albicans ATCC 10231, 24 hours at 37° C.
[11] = 24 h, Candida albicans ATCC 1023 (as printed in Table 3e)

Row | SMILES | MIC [1] | MIC [2] | MIC [3, 10] | MIC [4] | MIC [5] | MIC [6] | MIC [7] | MIC [8] | MIC [3, 11] | MIC [9]
1 | CC[Si](CC)(CC)CC(C)Cc1cc(Oc2ccccc2)ccc1O (stereo not drawn) [(118)] | > 1000 µg/mL | 4 µg/mL (≈ 11.2 µM) | > 1000 µg/mL | > 1000 µg/mL | > 1000 µg/mL |  |  |  |  | 
2 | CC(Cc1ccc2ccccc2c1O)C[Si](C)(O[Si](C)(C)C)O[Si](C)(C)C (stereo not drawn) [(117)] | > 1000 µg/mL | > 1000 µg/mL |  |  |  | 1000 µg/mL (≈ 2380 µM) | > 1000 µg/mL | > 1000 µg/mL | > 1000 µg/mL | 
3 | COc1ccc(O)c(CCC[Si](C)(O[Si](C)(C)C)O[Si](C)(C)C)c1 [(110)] | > 1000 µg/mL | 250 µg/mL (≈ 646 µM) | > 1000 µg/mL | > 1000 µg/mL | > 1000 µg/mL | 4 µg/mL (≈ 10.3 µM) |  |  |  | 
4 | CC(Cc1cc(C(C)(C)C)ccc1O)C[Si](C)(O[Si](C)(C)C)O[Si](C)(C)C (stereo not drawn) [(108)] | > 1000 µg/mL |  | > 1000 µg/mL | > 1000 µg/mL | > 1000 µg/mL | 8 µg/mL (≈ 18.7 µM) |  |  |  | 
5 | Cc1ccc(O)c(CCC[Si](C)(C)O[Si](C)(C)C)c1 [(114)] | > 1000 µg/mL | 8 µg/mL (≈ 27 µM) | > 1000 µg/mL | > 1000 µg/mL | > 1000 µg/mL | 8 µg/mL (≈ 27 µM) |  |  |  | 
6 | CC(Cc1ccc2ccccc2c1O)C[Si](C)(C)c1ccccc1 (stereo not drawn) [(121)] | > 1000 µg/mL | > 1000 µg/mL |  |  |  | 250 µg/mL (≈ 747 µM) | > 1000 µg/mL | > 1000 µg/mL | > 1000 µg/mL | 
7 | C[Si](C)(C)O[Si](C)(CCCc1ccccc1O)O[Si](C)(C)C [(104)] | > 1000 µg/mL | 8 µg/mL (≈ 22.4 µM) | > 1000 µg/mL | > 1000 µg/mL | > 1000 µg/mL |  |  |  |  | 
8 | C[Si](C)(C)O[Si](C)(C)CCCc1cc(Cl)ccc1O [(115)] | 500 µg/mL (≈ 1580 µM) | 15 µg/mL (≈ 47.3 µM) | 500 µg/mL (≈ 1580 µM) | 250 µg/mL (≈ 789 µM) | > 1000 µg/mL | 8 µg/mL (≈ 25.2 µM) |  |  |  | 
9 | C[Si](C)(C)O[Si](C)(CCCc1ccc2ccccc2c1O)O[Si](C)(C)C [(116)] | > 1000 µg/mL | > 1000 µg/mL |  |  |  | 500 µg/mL (≈ 1230 µM) | > 1000 µg/mL | > 1000 µg/mL | > 1000 µg/mL | 
10 | CC(Cc1cc(Oc2ccccc2)ccc1O)C[Si](C)(C)c1ccccc1 (stereo not drawn) [(120)] | > 1000 µg/mL | 8 µg/mL (≈ 21.2 µM) | > 1000 µg/mL | > 1000 µg/mL | > 1000 µg/mL | 4 µg/mL (≈ 10.6 µM) |  |  |  | 
11 | C[Si](C)(CCCc1ccccc1O)c1ccccc1 [(107)] | 15.6 µg/mL (≈ 57.7 µM) | 1.9 µg/mL (≈ 7.03 µM) | 125 µg/mL (≈ 462 µM) | > 1000 µg/mL | > 1000 µg/mL | 1.9 µg/mL (≈ 7.03 µM) | 7.8 µg/mL (≈ 28.8 µM) |  |  | 3.9 µg/mL (≈ 14.4 µM)
12 | C[Si](C)(C)O[Si](C)(C)CCCc1ccccc1O [(106)] | 31.2 µg/mL (≈ 110 µM) | 7.8 µg/mL (≈ 27.6 µM) | > 1000 µg/mL | > 1000 µg/mL | > 1000 µg/mL | 7.8 µg/mL (≈ 27.6 µM) | 31.2 µg/mL (≈ 110 µM) |  |  | 15.6 µg/mL (≈ 55.2 µM)
13 | C[Si](C)(C)O[Si](C)(C)O[Si](C)(C)CCCc1cc(Cl)ccc1O [(112)] | > 1000 µg/mL | 7 µg/mL (≈ 17.9 µM) | > 1000 µg/mL | > 1000 µg/mL | > 1000 µg/mL | 2 µg/mL (≈ 5.11 µM) |  |  |  | 
14 | C[Si](C)(CCCc1cc(Cl)ccc1O)c1ccccc1 [(119)] | 62 µg/mL (≈ 203 µM) | 4 µg/mL (≈ 13.1 µM) | 62 µg/mL (≈ 203 µM) | > 1000 µg/mL | > 1000 µg/mL | 2 µg/mL (≈ 6.56 µM) |  |  |  | 
15 | COc1ccc(O)c(CCC[Si](C)(C)c2ccccc2)c1 [(111)] | > 1000 µg/mL | 125 µg/mL (≈ 416 µM) | > 1000 µg/mL | > 1000 µg/mL | > 1000 µg/mL | 8 µg/mL (≈ 26.6 µM) |  |  |  | 
16 | C[Si](C)(C)O[Si](C)(C)O[Si](C)(C)CCCc1ccccc1O [(105)] | > 1000 µg/mL | 15.6 µg/mL (≈ 43.7 µM) | > 1000 µg/mL | > 1000 µg/mL | > 1000 µg/mL | 3.9 µg/mL (≈ 10.9 µM) | > 1000 µg/mL |  |  | 15.6 µg/mL (≈ 43.7 µM)
17 | COc1cc(CCC[Si](C)(O[Si](C)(C)C)O[Si](C)(C)C)ccc1O [(102)] | > 1000 µg/mL | > 1000 µg/mL | > 1000 µg/mL | > 1000 µg/mL | > 1000 µg/mL |  |  |  |  | 
18 | CC(Cc1cc(Oc2ccccc2)ccc1O)C[Si](C)(O[Si](C)(C)C)O[Si](C)(C)C (stereo not drawn) [(101)] | > 1000 µg/mL | 1000 µg/mL (≈ 2160 µM) | > 1000 µg/mL | > 1000 µg/mL | > 1000 µg/mL |  |  |  |  | 
19 | CC(Cc1cc(-c2ccccc2)ccc1O)C[Si](C)(O[Si](C)(C)C)O[Si](C)(C)C (stereo not drawn) [(103)] | > 560 µg/mL | > 560 µg/mL | > 560 µg/mL | > 560 µg/mL | > 560 µg/mL | 17.5 µg/mL (≈ 39.2 µM) | > 560 µg/mL |  |  | > 560 µg/mL
